One may read the IC50 as the concentration that gives 50% inhibition. In general, Ki refers to a measure of affinity in units of concentration, obtained from inhibition or displacement.

The values below come from ChEMBL document CHEMBL3400148, “Structure-based discovery of small molecule hepsin and HGFA protease inhibitors: Evaluation of potency and selectivity derived from distinct binding pockets” (Bioorg Med Chem, 2015).

The structures appear in SMILES notation. Active and inactive are the calls of the source. The calls are words filed in the database; no cut-off is given here.

Assay [1] has as its target T1, Hepatocyte growth factor activator serine protease (Homo sapiens, UniProt Q04756).
T1 sequence (Q04756 whole entry): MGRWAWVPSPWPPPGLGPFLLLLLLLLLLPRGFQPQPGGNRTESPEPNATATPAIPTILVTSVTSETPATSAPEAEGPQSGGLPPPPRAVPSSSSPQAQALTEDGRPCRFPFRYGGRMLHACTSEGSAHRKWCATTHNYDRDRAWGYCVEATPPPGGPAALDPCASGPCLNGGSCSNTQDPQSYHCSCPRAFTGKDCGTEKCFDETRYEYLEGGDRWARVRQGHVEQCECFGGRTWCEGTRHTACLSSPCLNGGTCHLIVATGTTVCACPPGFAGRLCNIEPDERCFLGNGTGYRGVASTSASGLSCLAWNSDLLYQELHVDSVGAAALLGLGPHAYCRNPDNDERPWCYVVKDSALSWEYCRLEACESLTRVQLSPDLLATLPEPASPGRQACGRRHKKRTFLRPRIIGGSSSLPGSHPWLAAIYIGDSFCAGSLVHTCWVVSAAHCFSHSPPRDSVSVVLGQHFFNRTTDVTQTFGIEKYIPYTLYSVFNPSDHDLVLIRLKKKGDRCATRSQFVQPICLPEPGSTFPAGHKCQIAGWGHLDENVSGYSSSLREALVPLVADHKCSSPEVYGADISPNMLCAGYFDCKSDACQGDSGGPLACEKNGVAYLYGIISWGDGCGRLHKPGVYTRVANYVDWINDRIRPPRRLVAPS
The assay is described as follows: Inhibition of recombinant N-terminal His-tagged HGFA (unknown origin) expressed in baculovirus-infected Sf9 cells incubated for 30 mins prior to cromogenic substrate addition by spectrophotometry.

Assay [2] concerns the target T2, Suppressor of tumorigenicity 14 protein (Homo sapiens, UniProt Q9Y5Y6).
T2 sequence (Q9Y5Y6 whole entry): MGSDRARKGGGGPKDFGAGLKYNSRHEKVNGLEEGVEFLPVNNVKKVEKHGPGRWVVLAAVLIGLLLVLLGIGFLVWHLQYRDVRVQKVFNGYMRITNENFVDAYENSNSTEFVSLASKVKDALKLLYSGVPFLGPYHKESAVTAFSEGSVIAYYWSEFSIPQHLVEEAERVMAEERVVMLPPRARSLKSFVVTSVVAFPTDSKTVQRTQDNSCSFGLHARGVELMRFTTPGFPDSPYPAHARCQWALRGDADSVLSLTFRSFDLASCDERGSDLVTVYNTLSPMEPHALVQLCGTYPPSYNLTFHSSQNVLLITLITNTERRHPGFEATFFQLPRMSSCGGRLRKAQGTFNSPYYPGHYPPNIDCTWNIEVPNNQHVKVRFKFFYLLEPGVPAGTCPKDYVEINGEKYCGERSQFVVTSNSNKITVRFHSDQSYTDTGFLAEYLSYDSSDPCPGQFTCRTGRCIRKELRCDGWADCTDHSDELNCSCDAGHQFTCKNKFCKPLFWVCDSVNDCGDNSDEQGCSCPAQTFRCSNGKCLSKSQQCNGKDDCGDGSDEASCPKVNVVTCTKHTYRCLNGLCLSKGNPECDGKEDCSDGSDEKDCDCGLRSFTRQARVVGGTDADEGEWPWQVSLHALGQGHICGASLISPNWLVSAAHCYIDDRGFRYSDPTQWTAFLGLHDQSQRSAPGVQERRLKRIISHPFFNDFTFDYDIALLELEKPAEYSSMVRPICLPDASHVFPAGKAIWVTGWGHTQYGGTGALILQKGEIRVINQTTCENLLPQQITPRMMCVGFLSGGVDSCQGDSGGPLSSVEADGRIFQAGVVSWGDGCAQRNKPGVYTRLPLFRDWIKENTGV
The assay is described as follows: Inhibition of matripase (unknown origin) using Boc-QAR-AMC as substrate incubated for 30 mins prior to substrate addition by fluorescence assay.

Assay [3] addresses T1, Hepatocyte growth factor activator serine protease. Description: Inhibition of HGFA (unknown origin) after 40 mins by Eadie-Hofstee plot analysis.
For assay [4] the target is unchanged. Description: Inhibition of recombinant N-terminal His-tagged HGFA (unknown origin) expressed in baculovirus-infected Sf9 cells using Boc-QLR-AMC as substrate incubated for 30 mins prior to substrate addition by fluorescence assay.
The target in the next assay is Serine protease hepsin (Homo sapiens, UniProt P05981). The assay is described as follows: Inhibition of hepsin (unknown origin) using Boc-QAR-AMC as substrate after 30 mins prior to substrate addition by fluorescence assay.
For assay [5], the target named is T3, Hepatocyte growth factor activator serine protease (Homo sapiens) (UniProt Q04756).
T3 sequence (whole entry): T1 sequence (Q04756 whole entry)
Description: Inhibition of recombinant N-terminal His-tagged HGFA (unknown origin) expressed in baculovirus-infected Sf9 cells using Boc-QLR-AMC as substrate up to 20 uM incubated for 30 mins prior to substrate addition by fluorescence assay.

Serine protease hepsin, sequence (P05981 1-162 limits assumed): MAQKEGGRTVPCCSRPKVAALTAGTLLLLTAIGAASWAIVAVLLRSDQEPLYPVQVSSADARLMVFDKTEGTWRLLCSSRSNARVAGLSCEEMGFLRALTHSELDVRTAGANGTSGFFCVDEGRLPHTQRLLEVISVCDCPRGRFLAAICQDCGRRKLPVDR
Serine protease hepsin, sequence (P05981 163-417 limits assumed): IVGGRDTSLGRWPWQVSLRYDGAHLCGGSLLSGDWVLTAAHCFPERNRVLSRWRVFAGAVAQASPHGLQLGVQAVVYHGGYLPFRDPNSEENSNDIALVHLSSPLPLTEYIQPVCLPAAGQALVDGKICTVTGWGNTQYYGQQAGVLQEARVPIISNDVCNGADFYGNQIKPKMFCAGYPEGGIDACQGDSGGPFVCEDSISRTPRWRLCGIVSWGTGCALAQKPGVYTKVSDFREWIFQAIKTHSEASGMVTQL

For the compound `COC(=O)c1ccc2cc(NS(=O)(=O)c3ccc(NC(=N)N)cc3)ccc2c1`, the IC50 in assay [1] is more than 50000 nM. Turning to `N=C(N)c1cccc(C[C@H](NS(=O)(=O)c2ccc3ccccc3c2)C(=O)N2CCN(C(=O)NCc3ccc(Br)cc3)CC2)c1`, the Ki in assay [2] came to 4600 nM.

In the case of `CCc1cc([C@@H](Nc2ccc(C(=N)N)cc2)C(=O)NS(=O)(=O)c2cn(C)cn2)cc2c(C)coc12`, in assay [3], the affinity corresponds to a Ki of 590 nM.

As for `N=C(N)Nc1ccc(NC(=O)c2ccccc2)cc1`, the IC50 in assay [1] was more than 50000 nM.

As for `Cc1ccc(S(=O)(=O)Nc2ccc(NC(=N)N)cc2)cc1`, the IC50 in assay [1] is more than 50000 nM. For `O=C(NC[C@H]1CN(c2ccc(N3CCOCC3=O)cc2)C(=O)O1)c1ccc(Cl)s1` [RIVAROXABAN], in assay [2], the affinity, expressed as Ki, was 3350 nM. As to `CC(C)c1cc(C(C)C)c(S(=O)(=O)N[C@@H](Cc2cccc(C(=N)N)c2)C(=O)N2CCN(C(=O)C3CCN(C(=N)N)CC3)CC2)c(C(C)C)c1`, the Ki in assay [2] was found to be 4.3 nM; in assay [4], 17000 nM; on Serine protease hepsin, 1580 nM.

Consider `CC(C)c1cc(C(C)C)c(S(=O)(=O)N[C@@H](Cc2cccc(C(=N)N)c2)C(=O)N2CCN(C(=O)C3CCNCC3)CC2)c(C(C)C)c1`, for which the Ki came out at 5500 nM in assay [4] and 7400 nM on Serine protease hepsin. Regarding `CCc1cc(C(Nc2ccc(C(=N)N)cc2)C(=O)NS(=O)(=O)c2cn(C)cn2)cc2c(C)coc12` (racemic), the values for the Ki (in assay [2]; in assay [4]; on Serine protease hepsin) were 7180 nM, 7100 nM and 553 nM, respectively. For the compound `Cc1ccc(S(=O)(=O)N[C@@H](CCCCN)C(=O)CCl)cc1`, the inhibition result in assay [5] was “inactive”. Turning to `N=C(N)c1cccc(C[C@H](NS(=O)(=O)c2ccc3ccccc3c2)C(=O)N2CCC[C@@H](NC(=O)OCc3ccccc3)C2)c1`, the Ki in assay [2] stood at 6700 nM; at Serine protease hepsin it was 2600 nM.

Regarding `N=C(N)Nc1ccc(C(=O)Nc2ccccc2)cc1`, the IC50 in assay [1] was more than 50000 nM. On the same count and under the same terms, with `CN(C)C(=O)COC(=O)Cc1ccc(OC(=O)c2ccc(NC(=N)N)cc2)cc1` [CAMOSTAT] the figure was 32000 nM. Consider `CCCCCCNC(=O)N1CCN(C(=O)[C@H](Cc2cccc(C(=N)N)c2)NS(=O)(=O)c2ccc3ccccc3c2)CC1`, for which, on Serine protease hepsin, the Ki was determined as 1200 nM. Regarding `COC(=O)c1ccc(OC(=O)c2ccc(NC(=N)N)cc2)cc1`, the IC50 in assay [1] is 1100 nM. For `N=C(N)Nc1ccc(C(=O)Oc2ccc([N+](=O)[O-])cc2Cl)cc1`, the IC50 in assay [1] is 300 nM. As to `N=C(N)Nc1ccc(C(=O)Oc2cccc([N+](=O)[O-])c2)cc1`, the IC50 in assay [1] is 3000 nM. Take `Cc1ccc(S(=O)(=O)N[C@@H](Cc2cccc(C(=N)N)c2)C(=O)N2CCC(c3ccccc3)CC2)cc1`: the Ki in assay [2] was 480 nM; on Serine protease hepsin it was 4700 nM. For the compound `[H]/N=C(/N)c1ccc(NCc2nc3cc(C(=O)N(CCC(=O)O)c4ccccn4)ccc3n2C)cc1` [DABIGATRAN], affinity on Serine protease hepsin was put at a Ki of 835 nM.

Regarding `N=C(N)c1cccc(C[C@H](NS(=O)(=O)c2ccc3ccccc3c2)C(=O)N2CCN(C(=O)NCc3ccccc3)CC2)c1`, in assay [2], the Ki was found to be 2600 nM. In the case of `Cc1ccc(S(=O)(=O)N[C@@H](Cc2cccc(C(=N)N)c2)C(=O)N2CCN(C(=O)NCCc3ccccc3)CC2)cc1`, the Ki is 2500 nM in assay [2], more than 50000 nM in assay [4] and 670 nM at Serine protease hepsin. On to `Cc1ccc(S(=O)(=O)N[C@@H](Cc2cccc(C(=N)N)c2)C(=O)N2CCC[C@H](NC(=O)OCc3ccccc3)C2)cc1`, for which, in assay [2], the affinity, expressed as Ki, was 1200 nM. On to `N=C(N)c1cccc(C[C@H](NS(=O)(=O)c2ccc3ccccc3c2)C(=O)N2CCN(C(=O)c3csc4ccccc34)CC2)c1`, for which the results for the Ki (in assay [2]; on Serine protease hepsin) were 1500 nM and 3500 nM, respectively. Regarding `N=C(N)c1ccc2cc(OC(=O)c3ccc(N=C(N)N)cc3)ccc2c1` [NAFAMOSTAT], the IC50 in assay [1] came to 150 nM. As for `N=C(N)Nc1ccc(C(=O)Oc2ccc(C(N)=O)cc2)cc1`, in assay [1], the half-inhibitory concentration (IC50) was found to be 6800 nM.

With `COC(=O)c1ccc2cc(OC(=O)c3ccc(NC(=N)N)cc3)ccc2c1`, the IC50 in assay [1] amounted to 600 nM.

Regarding `N=C(N)Nc1ccc(C(=O)Oc2ccc([N+](=O)[O-])cc2)cc1`, the IC50 in assay [1] is 820 nM.
